Measurements reported in patent US8815900B2, “Compounds and compositions for reducing lipid levels” (CVI Pharmaceuticals Limited, priority 2007, dated 2014).

How the values were obtained:
[1] = test system: LDLR mRNA expression in HepG2 cells; test: LDLR mRNA expression in HepG2 cells, semi-quantitative RT-PCR; format: cell-based, Human; conditions: 8 hours, indicated doses, corrected by GAPDH mRNA (FIG. 3)
Experimental: HepG2 cells obtained from American Tissue Culture Collection (Manassas, Va., USA) were seeded in 6-well culture plates at a density of 0.8×10^6 cells/well cultured in EMEM containing 0.5% FBS and were treated with each purified compound at indicated doses for 8 hours. Total RNA was isolated, and 2 μg per sample was reverse transcribed with random primers using M-MLV (Promega) at 37° C. for 1 hour. PCR was carried out at 94° C. for 30 sec, 60° C. for 30 sec, and 72° C. for 30 sec with initial activation of the enzyme at 94° C. for 1 minute. Thirty cycles were performed for LDLR and GAPDH. PCR was performed using primers HLDLR-up and HLDLR-lo for LDLR and primers HGAPDH-up and HGAPDH-lo for GAPDH. The PCR products were separated on a 1% agarose gel and the band intensity was quantitated. LDLR mRNA levels were corrected by measuring GAPDH mRNA levels.
After the treatment, a portion of cells was harvested for total RNA, and another portion of cells was used for TG measurement. The LDLR mRNA levels were assessed by semi quantitative RT-PCR, and the cellular TG content was determined as described above.

[2] = test system: Wister male rats under a high fat and high cholesterol diet; test: Lipid lowering and body weight effects of (14R,13S)-CRDL hydrochloride salt in Wister rats; format: in vivo
Experimental: Male Wister rats were used as another animal model to examine the in vivo effects of (14R,13S)-CRDL in plasma lipid levels.
In one experiment, 18 Wister male rats under a high fat and high cholesterol diet were divided into 2 groups. One group was given (14R,13S)-CRDL hydrochloride salt orally at a daily dose of 75 mg/kg by an orogastric tube for 4 weeks, and the control group received daily treatment of equal amount of vehicle (0.1 M sodium phosphate, pH 3.5). Serum lipid levels were measured weekly.
At the end of treatment, Rats were sacrificed and blood and sera were collected to measure several critical parameters for liver function and kidney function. […] Kidney function and blood glucose level were not changed by the treatment (FIG. 11E).
The food intake and body weight gains were measured every week during the 4-week treatment period. […] In the first week, the amount of food consumed was decreased in CRDL-treated group. […] The ability of CRDL to activate AMPK signaling pathway to increase energy expenditure and to reduce fat accumulation likely contributes to this weight reducing effect.

[3] = test system: hypercholesterolemic hamsters; test: In vivo lipid lowering of (14R,13S)-CRDL in hamsters on high cholesterol diet; parameters: species or system Golden Syrian male hamsters; conditions: 10 mg/kg daily i.p., 17 days
Experimental: In another experiment, 18 Golden Syrian male hamsters under a high cholesterol (HC) diet were divided into two treatment groups of i.p. One group was treated with (14R,13S)-CRDL at a daily dose of 10 mg/kg and the control group received equal amount of vehicle.
The HC diet markedly damaged the liver function of the hamsters, which was evident by elevated alanine aminotransaminase (ALT) and aspartate aminotransaminase (AST) in blood. (14R,13S)-CRDL treatment ameliorated the liver function under the HC diet and lowered the serum level of ALT by 60% and lowered the serum level of AST by 30% compared to control (FIG. 10B).

[4] = test system: LDLR ligand uptake activity in HepG2 cells; test: DiI-LDL uptake (LDLR ligand uptake activity) in HepG2 cells; format: cell-based, Human; conditions: 20 hours, B, compound dose ≦ 40 μM; further: key: +: slightly increased fluorescent intensity over control; ++: modestly increased fluorescent intensity over control; +++: strongly increased fluorescent intensity over control
Experimental: HepG2 cells (2×10^5 cells/well) in 24-well culture plates were treated with various compounds at indicated concentrations for 20 hours. The fluorescent 1,1′-dioctadecyl-3,3,3′,3′-tetramethylindocarbocyanin perchlorate (DiI-LDL) (Biomedical Technologies, Stoughton, Mass.) at a concentration of 2 μg/mL was added to cells at the end of treatment. After 4 hours, the medium was removed, cells were washed with cold PBS, and were examined immediately under a fluorescent microscope (Nikon) at 200× amplification. The fluorescent intensity in compound-treated cells was compared to that in untreated control cells. […] In these experiments berberine chloride was used for comparison.

[5] = (14R,13S)-CRDL hydrochloride salt orally 75 mg/kg daily, 4 weeks
[6] = end of 4-week treatment, 75 mg/kg daily orally
[7] = end of 4-week treatment, 75 mg/kg daily orally, vs control group
[8] = HC diet, compared to untreated group

## COc1cc2c(cc1OC)[C@H]1[C@@H](C)c3ccc(OC)c(OC)c3CN1CC2 [CRDL, 14R,13S-(+)-corydaline]
[1]
  LDLR mRNA expression: potent and dose-dependent effects
[2]; 4 weeks, 75 mg/kg daily orally, high fat and high cholesterol diet
  body weight: maintained constant
[2]; [5]
  LDL-c level, % of control: 25.6%
  LDL-c level, % of day 0: 22.4%
  TC, % compared to the control group: 33.8%
  TC, % of the pretreatment level: 33.0%
  TG level, % of the control: 29%
  TG level, % of the pretreatment level (day 0): 27%
  adverse effects during the entire treatment: No any adverse effects were observed
[2]; [6]
  blood glucose level: not changed
  kidney function (BUN, CREA): not changed
[2]; [7]
  serum level of ALT: statistically lower
  serum level of AST: statistically lower
[3]
  adverse effects during the drug treatment: no adverse effects were observed
[3]; HC diet
  blood level of glucose: not changed
  blood level of urea nitrogen (BUN): not changed
[3]; HC diet, compared to control
  lowering of serum level of ALT: 60%
  lowering of serum level of AST: 30%
[3]; [8]
  reduction of plasma TC: 41.9%
  reduction of plasma TG: 46.0%
  reduction of plasma non-HDL-c: 50%
[3]; HC diet, p<0.001
  reduction of level of creatinine (CREA): 20%
[4]
  Activity on DiI-LDL uptake: ++
